# Results: patent US12233161B1, “Lipids and lipid nanoparticle formulations” (LONGUIDE BIOPHARMA CORPORATION, priority 2024, dated 2025)
# Legend:
# [1] = tested on: mice; assay: In vivo delivery of FLuc-mRNA lipid nanoparticles in mice, in vivo imaging (IVIS)
# Method in brief: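 Mice (n=3) received about 75 μL FLuc-mRNA LNP per mouse intramuscularly (rectus femoris), intravenously (tail vein), intraperitoneally or subcutaneously (back). After injection, D-luciferin (200 μL, 15 mg/mL) was given i.p. 10-15 min before IVIS imaging.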
# [2] = Particle size and PDI of nucleic acid lipid nanoparticle preparations by dynamic light scattering; assay type: physicochemical
# Method in brief: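 Size read by DLS after diluting the LNP preparation (approx. 0.04 mg/mL mRNA) in ultrapure water with gentle pipette mixing. The same sample, recovered and diluted further with water, was then used for zeta potential measurement.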
# [3] = DMG-PEG2000:DSPC:Chol:Lipid 1.00:8.00:51.00:40.00, N/P 6.7, IV, liver
# [4] = DMG-PEG2000:DSPC:Chol:Lipid 1.00:8.00:51.00:40.00, N/P 6.7, IV, lung
# [5] = DMG-PEG2000:DSPC:Chol:Lipid 1.00:8.00:51.00:40.00, N/P 6.7, IV, spleen
# [6] = DMG-PEG2000:DSPC:Chol:Lipid 1.50:8.00:30.50:60.00, N/P 8.3, IV, liver
# [7] = DMG-PEG2000:DSPC:Chol:Lipid 1.50:8.00:30.50:60.00, N/P 8.3, IV, lung
# [8] = DMG-PEG2000:DSPC:Chol:Lipid 1.50:8.00:30.50:60.00, N/P 8.3, IV, spleen
# [9] = DMG-PEG2000:DSPC:Chol:Lipid 1.00:8.00:51.00:40.00, N/P 6.7, mRNA LNP
# [10] = DMG-PEG2000:DSPC:Chol:Lipid 1.50:8.00:30.50:60.00, N/P 8.3, mRNA LNP
# [11] = DMG-PEG2000:DSPC:Chol:Lipid 1.63:12.99:45.38:40.00, N/P 25, mRNA LNP
# [12] = DMG-PEG2000:DSPC:Chol:compound 1.40:11.15:38.95:48.50, N/P 20
# [13] = DMG-PEG2000:DSPC:Chol:Lipid 1.40:11.15:38.95:48.50, N/P 30, IM, whole body scan
# [14] = DMG-PEG2000:DSPC:Chol:Lipid 1.40:11.15:38.95:48.50, N/P 30, IV, body (whole body scan)
# [15] = DMG-PEG2000:DSPC:Chol:Lipid 1.40:11.15:38.95:48.50, N/P 30, mRNA LNP
# [16] = DMG-PEG2000:DSPC:Chol:Lipid 1.40:11.15:38.95:48.50, N/P 18, IM, whole body scan
# [17] = DMG-PEG2000:DSPC:Chol:Lipid 1.40:11.15:38.95:48.50, N/P 18, IV, whole body scan
# [18] = DMG-PEG2000:DSPC:Chol:Lipid 1.40:11.15:38.95:48.50, N/P 18, mRNA LNP
# [19] = DMG-PEG2000:DSPC:Chol:Lipid 1.00:11.50:22.50:65.00, N/P 45, IV, liver
# [20] = DMG-PEG2000:DSPC:Chol:Lipid 1.00:11.50:22.50:65.00, N/P 45, IV, lung
# [21] = DMG-PEG2000:DSPC:Chol:Lipid 1.00:11.50:22.50:65.00, N/P 45, IV, spleen
# [22] = DMG-PEG2000:DSPC:Chol:Lipid 1.00:16.00:48.00:35.00, N/P 30, IV, liver
# [23] = DMG-PEG2000:DSPC:Chol:Lipid 1.00:16.00:48.00:35.00, N/P 30, IV, lung
# [24] = DMG-PEG2000:DSPC:Chol:Lipid 1.00:16.00:48.00:35.00, N/P 30, IV, spleen
# [25] = DMG-PEG2000:DSPC:Chol:Lipid 1.00:11.50:22.50:65.00, N/P 45, mRNA LNP
# [26] = DMG-PEG2000:DSPC:Chol:Lipid 1.00:16.00:48.00:35.00, N/P 30, mRNA LNP
# [27] = DMG-PEG2000:DSPC:Chol:Lipid 1.40:11.15:38.95:48.50, N/P 45, mRNA LNP
# [28] = DMG-PEG2000:DSPC:Chol:compound 1.40:11.15:38.95:48.50, N/P 30
# [29] = DMG-PEG2000:DSPC:Chol:Lipid 1.40:11.15:38.95:48.50, N/P 60, mRNA LNP
# [30] = DMG-PEG2000:DSPC:Chol:Lipid 1.77:14.07:49.16:35.00, N/P 60, mRNA LNP
smiles,measurement,setting,value
CCCCCCCCCCNC(=O)C(O)CN(CCN(C)CCN(CC(O)C(=O)NCCCCCCCCCC)CC(O)C(=O)NCCCCCCCCCC)CC(O)C(=O)NCCCCCCCCCC (centres unmarked) [Compound L0266],IVIS,"[1]; DMG-PEG2000:DSPC:Chol:Lipid 1.00:8.00:51.00:40.00, N/P 6.7, IV, body",3.13 × 10^7
same,% of organ targeting,[1]; [3],28.98%
same,IVIS,[1]; [3],3.13 × 10^6
same,% of organ targeting,[1]; [4],24.44%
same,IVIS,[1]; [4],2.64 × 10^6
same,% of organ targeting,[1]; [5],46.57%
same,IVIS,[1]; [5],5.03 × 10^6
same,IVIS,"[1]; DMG-PEG2000:DSPC:Chol:Lipid 1.50:8.00:30.50:60.00, N/P 8.3, IV, body",2.53 × 10^7
same,% of organ targeting,[1]; [6],3.53%
same,IVIS,[1]; [6],1.72 × 10^6
same,% of organ targeting,[1]; [7],89.03%
same,IVIS,[1]; [7],4.34 × 10^7
same,% of organ targeting,[1]; [8],7.45%
same,IVIS,[1]; [8],3.63 × 10^6
same,IVIS,"[1]; DMG-PEG2000:DSPC:Chol:Lipid 1.63:12.99:45.38:40.00, N/P 25, IM, whole body scan",2.20 × 10^6
same,tissue-targeting specificity (lung vs spleen depending on molar percentage of compound),"[1]; certain formulations, Table 2",strong tissue-targeting specificity
same,PDI,[2]; [9],0.10 ± 0.01
same,Particle size,[2]; [9],80.47 ± 1.22 nm
same,PDI,[2]; [10],0.17 ± 0.02
same,Particle size,[2]; [10],108.70 ± 0.82 nm
same,PDI,[2]; [11],0.17 ± 0.01
same,Particle size,[2]; [11],85.98 ± 1.18 nm
CCCCCCCCCCCCNC(=O)C(O)CN(CCCCCN(CC(O)C(=O)NCCCCCCCCCCCC)CC(O)C(=O)NCCCCCCCCCCCC)CC(O)C(=O)NCCCCCCCCCCCC (centres unmarked) [Compound L0307],IVIS,"[1]; IM, DMG-PEG2000:DSPC:Chol:compound 1.40:11.15:38.95:48.50, N/P 20, Fluc-mRNA",1.43E+05
same,IVIS,"[1]; IV, organ not given, DMG-PEG2000:DSPC:Chol:compound 1.40:11.15:38.95:48.50, N/P 20, Fluc-mRNA",4.29E+05
same,PDI,[2]; [12],0.25
same,Particle size (nm),[2]; [12],178.57 nm
CCCCCCCCCCCCOC(=O)C(O)CN(C)CCN(C)CCN(C)CC(O)C(=O)OCCCCCCCCCCCC (centres unmarked) [Compound L0276],IVIS,[1]; [13],1.81 × 10^6
same,IVIS,[1]; [14],1.60 × 10^5
same,PDI,[2]; [15],0.23 ± 0.02
same,Particle size,[2]; [15],98.58 ± 2.89 nm
CCCCCCCCCCCCNC(=O)C(O)CN(C)CCN(C)CCN(C)CC(O)C(=O)NCCCCCCCCCCCC (centres unmarked) [Compound L0278],IVIS,[1]; [16],3.77 × 10^5
same,IVIS,[1]; [17],2.49 × 10^5
same,PDI,[2]; [18],0.23 ± 0.01
same,Particle size,[2]; [18],91.75 ± 0.80 nm
CC/C=C\CCOCOCCCCCCOC(=O)C(O)CN(C)CCN(C)CCN(C)CC(O)C(=O)OCCCCCCOCOCC/C=C\CC (centres unmarked) [Compound L0284],IVIS,[1]; [16],5.87 × 10^4
same,IVIS,[1]; [17],2.03 × 10^5
same,PDI,[2]; [18],0.12 ± 0.02
same,Particle size,[2]; [18],150.97 ± 2.57 nm
CCCCCCCCCCCCOC(=O)C(O)CN(CCCN(CC(O)C(=O)OCCCCCCCCCCCC)CC(O)C(=O)OCCCCCCCCCCCC)CCCN(CC(O)C(=O)OCCCCCCCCCCCC)CC(O)C(=O)OCCCCCCCCCCCC (centres unmarked) [Compound L0269],IVIS,"[1]; DMG-PEG2000:DSPC:Chol:Lipid 1.00:11.50:22.50:65.00, N/P 45, IV, body",9.49 × 10^8
same,% of organ targeting,[1]; [19],69.52%
same,IVIS,[1]; [19],2.05 × 10^8
same,% of organ targeting,[1]; [20],0.64%
same,IVIS,[1]; [20],1.88 × 10^6
same,% of organ targeting,[1]; [21],29.84%
same,IVIS,[1]; [21],8.80 × 10^7
same,IVIS,"[1]; DMG-PEG2000:DSPC:Chol:Lipid 1.00:16.00:48.00:35.00, N/P 30, IV, body",5.46 × 10^8
same,% of organ targeting,[1]; [22],28.77%
same,IVIS,[1]; [22],7.87 × 10^7
same,% of organ targeting,[1]; [23],0.33%
same,IVIS,[1]; [23],8.92 × 10^5
same,% of organ targeting,[1]; [24],70.91%
same,IVIS,[1]; [24],1.94 × 10^8
same,IVIS,"[1]; DMG-PEG2000:DSPC:Chol:Lipid 1.40:11.15:38.95:48.50, N/P 45, IM, whole body scan",3.83 × 10^7
same,in vivo delivery efficiency as compared to the benchmark compound SM102,"[1]; certain formulations, Table 2",superior in vivo delivery efficiency
same,PDI,[2]; [25],0.06 ± 0.01
same,Particle size,[2]; [25],128.20 ± 0.89 nm
same,PDI,[2]; [26],0.11 ± 0.01
same,Particle size,[2]; [26],125.17 ± 1.03 nm
same,PDI,[2]; [27],0.10 ± 0.01
same,Particle size,[2]; [27],142.10 ± 0.78 nm
CC/C=C\CCOCOCCCCCCOC(=O)C(O)CN(CCN(C)CCN(CC(O)C(=O)OCCCCCCOCOCC/C=C\CC)CC(O)C(=O)OCCCCCCOCOCC/C=C\CC)CC(O)C(=O)OCCCCCCOCOCC/C=C\CC (centres unmarked) [Compound L0334],IVIS,"[1]; IM, DMG-PEG2000:DSPC:Chol:compound 1.40:11.15:38.95:48.50, N/P 30, Fluc-mRNA",6.25E+05
same,IVIS,"[1]; IV, body, DMG-PEG2000:DSPC:Chol:compound 1.40:11.15:38.95:48.50, N/P 30, Fluc-mRNA",5.29E+08
same,% of organ targeting,"[1]; IV, liver, DMG-PEG2000:DSPC:Chol:compound 1.40:11.15:38.95:48.50, N/P 30",57.03%
same,IVIS,"[1]; IV, liver, DMG-PEG2000:DSPC:Chol:compound 1.40:11.15:38.95:48.50, N/P 30, Fluc-mRNA",1.01E+08
same,% of organ targeting,"[1]; IV, lung, DMG-PEG2000:DSPC:Chol:compound 1.40:11.15:38.95:48.50, N/P 30",6.95%
same,IVIS,"[1]; IV, lung, DMG-PEG2000:DSPC:Chol:compound 1.40:11.15:38.95:48.50, N/P 30, Fluc-mRNA",1.22E+07
same,% of organ targeting,"[1]; IV, spleen, DMG-PEG2000:DSPC:Chol:compound 1.40:11.15:38.95:48.50, N/P 30",36.03%
same,IVIS,"[1]; IV, spleen, DMG-PEG2000:DSPC:Chol:compound 1.40:11.15:38.95:48.50, N/P 30, Fluc-mRNA",6.35E+07
same,PDI,[2]; [28],0.06
same,Particle size (nm),[2]; [28],146.13 nm
CCCCCCCCCCNC(=O)C(O)CN(CCCN(CC(O)C(=O)NCCCCCCCCCC)CC(O)C(=O)NCCCCCCCCCC)CCCN(CC(O)C(=O)NCCCCCCCCCC)CC(O)C(=O)NCCCCCCCCCC (centres unmarked) [Compound L0268],IVIS,"[1]; DMG-PEG2000:DSPC:Chol:Lipid 1.40:11.15:38.95:48.50, N/P 60, IV, whole body scan",3.80 × 10^5
same,IVIS,"[1]; DMG-PEG2000:DSPC:Chol:Lipid 1.77:14.07:49.16:35.00, N/P 60, IM, whole body scan",5.86 × 10^5
same,PDI,[2]; [29],0.07 ± 0.01
same,Particle size,[2]; [29],116.83 ± 1.07 nm
same,PDI,[2]; [30],0.08 ± 0.01
same,Particle size,[2]; [30],95.36 ± 0.61 nm
CCCCCCC(CCCCCC)C(=O)OCCCCCCOC(=O)C(O)CN(C)CCN(C)CCN(C)CC(O)C(=O)OCCCCCCOC(=O)C(CCCCCC)CCCCCC (centres unmarked) [Compound L0286],IVIS,[1]; [13],3.05 × 10^3
same,IVIS,[1]; [14],4.41 × 10^6
same,PDI,[2]; [15],0.16 ± 0.04
same,Particle size,[2]; [15],136.97 ± 0.92 nm
